Reference: ChEMBL document CHEMBL4265895, “Novel inhibitors of As(III) S-adenosylmethionine methyltransferase (AS3MT) identified by virtual screening” (Bioorg Med Chem Lett, 2018)

Assays:
[1] = biological target: T1, Arsenite methyltransferase (Homo sapiens, UniProt Q9HBK9); experiment: Inhibition of human AS3MT using NaAsO2 as substrate preincubated for 30 minutes followed by substrate addition measured after 90 mins in presence of SAM
T1 sequence (Q9HBK9 whole entry): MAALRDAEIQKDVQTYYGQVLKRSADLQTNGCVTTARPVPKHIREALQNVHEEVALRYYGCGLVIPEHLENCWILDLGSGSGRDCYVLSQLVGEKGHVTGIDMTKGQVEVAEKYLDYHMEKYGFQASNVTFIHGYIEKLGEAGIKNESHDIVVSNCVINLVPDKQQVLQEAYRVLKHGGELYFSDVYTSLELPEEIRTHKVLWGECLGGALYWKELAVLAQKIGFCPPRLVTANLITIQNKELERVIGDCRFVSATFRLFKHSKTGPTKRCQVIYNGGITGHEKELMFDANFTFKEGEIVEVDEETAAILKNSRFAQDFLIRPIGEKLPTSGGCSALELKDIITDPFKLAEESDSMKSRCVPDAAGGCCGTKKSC

[2] = biological target: Histone-lysine N-methyltransferase, H3 lysine-79 specific (Homo sapiens, UniProt Q8TEK3); experiment: Inhibition of full-length DOT1L (unknown origin) using HeLa oligonucleosome as substrate preincubated for 15 mins followed by substrate addition measured after 45 mins in presence of SAM by MTaseGlo assay
[3] = biological target: T2, Histone-lysine N-methyltransferase NSD2 (Homo sapiens, UniProt O96028); experiment: Inhibition of full-length NSD2 (unknown origin) using HeLa oligonucleosome as substrate preincubated for 15 mins followed by substrate addition measured after 45 mins in presence of SAM by MTaseGlo assay
T2 sequence (O96028 whole entry): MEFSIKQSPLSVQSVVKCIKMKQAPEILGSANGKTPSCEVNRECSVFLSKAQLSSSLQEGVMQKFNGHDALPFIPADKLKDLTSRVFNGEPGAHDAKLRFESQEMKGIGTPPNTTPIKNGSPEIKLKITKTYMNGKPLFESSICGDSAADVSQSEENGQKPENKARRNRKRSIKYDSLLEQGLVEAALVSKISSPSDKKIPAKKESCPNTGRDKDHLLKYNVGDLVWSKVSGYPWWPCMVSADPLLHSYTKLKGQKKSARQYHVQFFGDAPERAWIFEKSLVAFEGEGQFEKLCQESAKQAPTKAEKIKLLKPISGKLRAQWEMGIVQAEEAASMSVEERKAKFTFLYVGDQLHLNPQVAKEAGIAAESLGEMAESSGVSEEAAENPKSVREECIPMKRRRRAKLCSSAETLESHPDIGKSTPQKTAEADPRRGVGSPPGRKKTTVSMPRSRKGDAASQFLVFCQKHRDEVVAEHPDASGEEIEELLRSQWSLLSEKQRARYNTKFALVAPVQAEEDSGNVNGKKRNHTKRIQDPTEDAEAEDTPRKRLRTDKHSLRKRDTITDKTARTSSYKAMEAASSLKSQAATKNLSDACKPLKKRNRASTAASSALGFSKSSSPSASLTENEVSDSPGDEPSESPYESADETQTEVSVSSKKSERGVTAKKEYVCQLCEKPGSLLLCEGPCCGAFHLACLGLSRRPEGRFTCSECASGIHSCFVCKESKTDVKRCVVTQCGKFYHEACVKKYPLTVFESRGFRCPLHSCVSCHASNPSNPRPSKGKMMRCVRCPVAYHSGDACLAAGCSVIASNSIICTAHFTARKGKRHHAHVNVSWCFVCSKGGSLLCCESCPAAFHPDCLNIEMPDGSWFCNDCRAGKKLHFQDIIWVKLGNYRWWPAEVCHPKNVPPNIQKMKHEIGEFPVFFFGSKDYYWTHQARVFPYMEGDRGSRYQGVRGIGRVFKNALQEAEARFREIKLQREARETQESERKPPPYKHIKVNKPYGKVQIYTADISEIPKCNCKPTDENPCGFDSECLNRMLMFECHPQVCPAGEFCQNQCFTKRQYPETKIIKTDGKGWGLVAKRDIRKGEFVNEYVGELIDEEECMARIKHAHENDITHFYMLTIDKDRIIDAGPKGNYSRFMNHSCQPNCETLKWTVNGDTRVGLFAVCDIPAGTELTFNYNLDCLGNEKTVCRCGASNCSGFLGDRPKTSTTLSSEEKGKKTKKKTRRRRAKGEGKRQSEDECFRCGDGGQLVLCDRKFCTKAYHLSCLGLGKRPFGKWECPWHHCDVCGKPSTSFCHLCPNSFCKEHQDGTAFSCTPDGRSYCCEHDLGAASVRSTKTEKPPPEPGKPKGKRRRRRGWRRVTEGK

Sequence of Histone-lysine N-methyltransferase, H3 lysine-79 specific (Q8TEK3 whole entry): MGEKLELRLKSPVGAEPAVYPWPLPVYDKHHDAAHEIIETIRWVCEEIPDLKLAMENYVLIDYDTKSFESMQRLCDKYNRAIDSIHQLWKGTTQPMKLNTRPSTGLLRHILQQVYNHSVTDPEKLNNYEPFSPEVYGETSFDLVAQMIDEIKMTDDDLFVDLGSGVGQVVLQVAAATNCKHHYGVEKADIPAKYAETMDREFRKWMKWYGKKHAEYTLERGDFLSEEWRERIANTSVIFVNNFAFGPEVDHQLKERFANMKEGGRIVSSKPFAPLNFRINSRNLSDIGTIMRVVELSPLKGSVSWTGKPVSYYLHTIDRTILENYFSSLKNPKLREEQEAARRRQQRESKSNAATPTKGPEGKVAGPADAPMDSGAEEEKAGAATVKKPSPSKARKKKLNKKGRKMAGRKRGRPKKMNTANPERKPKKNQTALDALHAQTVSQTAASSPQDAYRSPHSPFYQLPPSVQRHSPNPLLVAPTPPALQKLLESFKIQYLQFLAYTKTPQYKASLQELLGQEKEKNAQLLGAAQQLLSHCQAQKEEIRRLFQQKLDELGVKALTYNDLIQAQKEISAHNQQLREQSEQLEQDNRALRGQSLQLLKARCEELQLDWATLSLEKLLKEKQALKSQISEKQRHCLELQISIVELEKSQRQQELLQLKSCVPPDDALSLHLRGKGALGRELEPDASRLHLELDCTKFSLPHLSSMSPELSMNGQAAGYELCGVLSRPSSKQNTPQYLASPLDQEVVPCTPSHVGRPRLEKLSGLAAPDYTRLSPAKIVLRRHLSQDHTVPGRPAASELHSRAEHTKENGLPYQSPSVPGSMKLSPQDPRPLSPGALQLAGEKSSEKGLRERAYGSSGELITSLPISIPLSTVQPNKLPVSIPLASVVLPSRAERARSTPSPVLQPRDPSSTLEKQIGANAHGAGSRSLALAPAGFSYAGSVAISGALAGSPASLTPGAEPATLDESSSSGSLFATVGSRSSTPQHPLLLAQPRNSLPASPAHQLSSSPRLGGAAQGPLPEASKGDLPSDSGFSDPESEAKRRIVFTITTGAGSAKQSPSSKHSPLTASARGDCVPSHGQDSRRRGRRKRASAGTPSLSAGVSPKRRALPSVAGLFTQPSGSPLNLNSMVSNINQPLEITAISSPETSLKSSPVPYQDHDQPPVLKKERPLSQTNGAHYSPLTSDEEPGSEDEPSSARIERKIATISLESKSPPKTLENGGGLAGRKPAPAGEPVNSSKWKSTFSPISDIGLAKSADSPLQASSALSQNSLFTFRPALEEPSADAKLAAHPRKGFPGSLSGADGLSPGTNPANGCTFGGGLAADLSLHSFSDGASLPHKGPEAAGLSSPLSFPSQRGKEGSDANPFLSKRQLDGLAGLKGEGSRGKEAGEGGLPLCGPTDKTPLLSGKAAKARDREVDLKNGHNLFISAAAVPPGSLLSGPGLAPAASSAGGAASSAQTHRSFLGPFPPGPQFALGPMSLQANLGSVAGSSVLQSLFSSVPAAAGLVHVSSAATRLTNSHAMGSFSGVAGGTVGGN

IC50 [1] [µM]	IC50 [2] [µM]	IC50 [3] [µM]	Compound
5	> 100	9.1	N#Cc1c(N)[nH]c2ccc(Oc3ccc(NC(=O)[C@H](N)CO)cc3)cc12
1.8	99	12	CCn1c(N)c(C#N)c2cc(Oc3ccc(NC(=O)CN)cc3)ccc21
3.3	> 100	47	Cn1c(N)c(C#N)c2cc(Oc3ccc(NC(=O)CN)cc3)ccc21
3	> 100	11	N#Cc1c(N)[nH]c2ccc(Oc3ccc(NC(=O)[C@@H](N)CO)cc3)cc12
8.3			CN(C)C(=O)Cn1c(N)c(C#N)c2cc(Oc3ccc(NC(=O)CN)cc3)ccc21
> 100			CCn1cc(C#N)c2cc(Oc3ccc(NC(=O)CN)cc3)ccc21
20			N#Cc1c(N)n(CC(N)=O)c2ccc(Oc3ccc(NC(=O)CN)cc3)cc12
3.6	> 100	49	N#Cc1c(N)[nH]c2ccc(OCc3ccccc3)cc12
1.4	> 100	> 100	Cn1c(N)c(C#N)c2cc(OCc3cccc(N)c3)ccc21
13.6	> 100	> 100	Cn1c(N)c(C#N)c2cc(OCc3ccccc3)ccc21
2.9			Cn1c(N)c(C#N)c2cc(OCc3cccc(NC(=O)C(N)CO)c3)ccc21 (centres undefined)
1.5	96	5.8	N#Cc1c(N)n(CC2CC2)c2ccc(Oc3ccc(NC(=O)CN)cc3)cc12
> 100			CC(C)(C)C(=O)Nc1[nH]c2ccc(OCc3ccccc3)cc2c1C#N
